According to ChEMBL document CHEMBL1154658, “Novel macrocyclic inhibitors of hepatitis C NS3/4A protease featuring a 2-amino-1,3-thiazole as a P4 carbamate replacement” (J Med Chem, 2009):

Legend:
[1] = Oral bioavailability in Sprague-Dawley rat at 5 mg/kg; format: ADME, organism-based; conditions: in vivo
[2] = Drug level in Sprague-Dawley rat liver at 5 mg/kg, po after 4 hrs; format: ADME, organism-based; set-up: dose 5 mg/kg, route oral; conditions: read-out: Drug uptake
Rattus norvegicus [3] = assay: Plasma clearance in Sprague-Dawley rat at 5 mg/kg, po; format: ADME, organism-based; set-up: dose 5 mg/kg, route oral; conditions: in vivo
Hepatitis C virus [4] = assay: Antiviral activity against HCV 1b infected in human Huh7 cells by bicistronic replicon RNA assay in presence of 50% normal human serum; format: functional, organism-based, Hepacivirus hominis; conditions: genotype 1b, Huh-7
Rattus norvegicus [5] = assay: (§1) AUC (0 to 4 hrs) in Sprague-Dawley rat at 5 mg/kg, po; format: ADME, organism-based, Plasma; set-up: time < 4 hr, dose 5 mg/kg, route oral; conditions: in vivo, 4 h
Hepatitis C virus [6] = assay: Inhibition of HCV 1b NS3/4A protease by time-resolved fluorescence assay; set-up: species or system Hepatitis C virus subtype 1b
Hepatitis C virus [7] = assay: Antiviral activity against HCV 1b infected in human Huh7 cells by bicistronic replicon RNA assay in presence of 10% fetal bovine serum; format: functional, organism-based, Hepacivirus hominis; conditions: genotype 1b, Huh-7
[8] = as §1; format: ADME, organism-based, Plasma; set-up: time < 4 hr, dose 5 mg/kg, route oral; conditions: Sprague-Dawley, plasma
[9] = Oral bioavailability in Sprague-Dawley rat at 4 mg/kg; format: ADME, organism-based; conditions: in vivo
Rattus norvegicus [10] = assay: (§2) AUC (0 to 4 hrs) in Sprague-Dawley rat at 4 mg/kg, po; format: ADME, organism-based, Plasma; set-up: time < 4 hr, dose 4 mg/kg, route oral; conditions: in vivo, 4 h
Rattus norvegicus [11] = assay: (§3) Plasma clearance in Sprague-Dawley rat at 4 mg/kg, po; format: ADME, organism-based; set-up: dose 4 mg/kg, route oral; conditions: in vivo
[12] = Drug level in Sprague-Dawley rat liver at 4 mg/kg, po after 4 hrs; format: ADME, organism-based; set-up: dose 4 mg/kg, route oral; conditions: read-out: Drug uptake
[13] = as §2; format: ADME, organism-based, Plasma; set-up: time < 4 hr, dose 4 mg/kg, route oral; conditions: Sprague-Dawley, plasma
[14] = as §3; format: ADME, organism-based; set-up: dose 4 mg/kg, route oral; conditions: Sprague-Dawley, plasma

bioavailability [1] [%]	concentration at 4 h [2] [nM]	CL (Rattus norvegicus [3]) [mL/min/kg]	AUC (Rattus norvegicus [5]) [µM·h]	EC50 (Hepatitis C virus [7]) [nM]	AUC(0-t) at 4 h [8] [µM·h]	bioavailability [9] [%]	AUC (Rattus norvegicus [10]) [µM·h]	CL (Rattus norvegicus [11]) [mL/min/kg]	concentration at 4 h [12] [nM]	AUC(0-t) at 4 h [13] [µM·h]	CL/F [14] [mL/min/kg]	EC90 (Hepatitis C virus [7]) [nM]	Compound	EC50 (Hepatitis C virus [4]) [nM]	Ki (Hepatitis C virus [6]) [nM]	EC90 (Hepatitis C virus [4]) [nM]
–	1000	–	–	20	0.1	–	–	–	–	–	–	–	C=C[C@@H]1C[C@]1(NC(=O)[C@@H]1C[C@@H]2CN1C(=O)[C@H](C(C)(C)C)Nc1nc(cs1)CCCCc1ccc3ccnc(c3c1)O2)C(=O)NS(=O)(=O)C1CC1.O=C(O)C(F)(F)F	130	0.2	–
60	5500	–	–	60	9.9	–	–	–	–	–	–	–	C=C[C@@H]1C[C@]1(NC(=O)[C@@H]1C[C@@H]2CN1C(=O)[C@H](C(C)C)Nc1nc(cs1)CCCCc1ccc3ccnc(c3c1)O2)C(=O)NS(=O)(=O)C1CC1.O=C(O)C(F)(F)F	920	1.7	–
–	3400	–	–	30	4.7	–	–	–	–	–	–	–	C=C[C@@H]1C[C@]1(NC(=O)[C@@H]1C[C@@H]2CN1C(=O)[C@H](C1CCCCC1)Nc1nc(cs1)CCCCc1ccc3ccnc(c3c1)O2)C(=O)NS(=O)(=O)C1CC1.O=C(O)C(F)(F)F	350	1.3	–
–	3600	–	–	20	0.8	–	–	–	–	–	–	–	C=C[C@@H]1C[C@]1(NC(=O)[C@@H]1C[C@@H]2CN1C(=O)[C@H](C(C)C)Nc1nc(cs1)C(C)(C)CCCc1ccc3ccnc(c3c1)O2)C(=O)NS(=O)(=O)C1CC1.O=C(O)C(F)(F)F	100	3	–

More lines, now with the values behind:

Compound	bioavailability [1] [%]	concentration at 4 h [2] [nM]	CL (Rattus norvegicus [3]) [mL/min/kg]	AUC (Rattus norvegicus [5]) [µM·h]	EC50 (Hepatitis C virus [7]) [nM]	AUC(0-t) at 4 h [8] [µM·h]	bioavailability [9] [%]	AUC (Rattus norvegicus [10]) [µM·h]	CL (Rattus norvegicus [11]) [mL/min/kg]	concentration at 4 h [12] [nM]	AUC(0-t) at 4 h [13] [µM·h]	CL/F [14] [mL/min/kg]	EC90 (Hepatitis C virus [7]) [nM]	EC50 (Hepatitis C virus [4]) [nM]	Ki (Hepatitis C virus [6]) [nM]	EC90 (Hepatitis C virus [4]) [nM]
C=C[C@@H]1C[C@]1(NC(=O)[C@@H]1C[C@@H]2CN1C(=O)[C@H](C(C)C)Nc1nc(cs1)CCC/C=C/c1cccc3c1CN(C3)C(=O)O2)C(=O)NS(=O)(=O)C1CC1.O=C(O)C(F)(F)F	8	600	21	0.4	5	–	–	–	–	–	–	–	–	50	0.16	–
C=C[C@@H]1C[C@]1(NC(=O)[C@@H]1C[C@@H]2CN1C(=O)[C@H](C1CCCCC1)Nc1nc(cs1)CCC/C=C/c1cccc3c1CN(C3)C(=O)O2)C(=O)NS(=O)(=O)C1CC1.O=C(O)C(F)(F)F	–	–	–	–	3	–	8	0.4	17	350	–	–	–	16	0.04	–
C=C[C@@H]1C[C@]1(NC(=O)[C@@H]1C[C@@H]2CN1C(=O)[C@H](C1CCCC1)Nc1nc(cs1)CCC/C=C/c1cccc3c1CN(C3)C(=O)O2)C(=O)NS(=O)(=O)C1CC1.O=C(O)C(F)(F)F	–	–	–	–	2	–	36	–	–	180	0.7	25	3	16	0.08	34
C=C[C@@H]1C[C@]1(NC(=O)[C@@H]1C[C@@H]2CN1C(=O)[C@H](C(C)C)NC1=NN=C(CCCCc3ccc4ccnc(c4c3)O2)O1)C(=O)NS(=O)(=O)C1CC1	–	30	–	–	80	0.1	–	–	–	–	–	–	–	180	0.9	–
C=C[C@@H]1C[C@]1(NC(=O)[C@@H]1C[C@@H]2CN1C(=O)[C@H](C(C)(C)C)Nc1nc(cs1)CCCCCc1cccc3c1CN(C3)C(=O)O2)C(=O)NS(=O)(=O)C1CC1.O=C(O)C(F)(F)F	5	60	95	0.06	4	–	–	–	–	–	–	–	–	19	0.16	–
